According to patent US20260284079A1, “LIPID PRODRUGS OF ALLOPR[…] USES THEREOF” (Seaport Therapeutics, Inc., priority 2023, published 2026):

Experiment: Safety and tolerability, treatment-emergent adverse events (Example 1)
Format: in vivo, human
Details: for Any TEAE, subjects (%): 9 subjects
Text: As used herein, the term “Adverse Event” refers to any event, side-effect, or other untoward medical occurrence in a subject (i.e., a clinical study participant) administered a pharmaceutical product. […] As used herein, a “treatment-emergent adverse event” or “TEAE” refers to an adverse event not present prior to treatment (i.e., receiving a dose of Compound 1) or an already present event that worsens in intensity or frequency following treatment. TEAEs may be classified by system organ class (SOC); an exemplary SOC is Nervous System Disorders. Examples of Nervous System Disorder TEAEs include somnolence, headache, dizziness, lethargy, balance disorder, and cognitive disorder.
A three-part study to assess the safety, tolerability, and PK/PD properties of Compound 1 in humans was performed. Part 1 was a randomized, double-blinded, placebo-controlled, single ascending dose (SAD) phase. Part 2 was a randomized, open-label phase to assess the effect of food on Compound 1. Part 3 was a randomized, double-blinded, placebo-controlled multiple-ascending dose phase.
Part 1 Primary Objectives: to evaluate the safety and tolerability of single oral doses of Compound 1 and to determine the maximum tolerated dose (MTD) following ascending single oral doses of Compound 1. Part 1 Primary Endpoints: incidence, severity, and duration of treatment-emergent adverse events (TEAEs), serious adverse events (SAEs), and incidence of clinically significant vital signs, pulse oximetry, ECGs, safety laboratory, or physical examination findings and MTD of Compound 1 in healthy subjects.
The safety, tolerability, and PK of Compound 1 administered as multiple doses (up to 7 days) was determined. Subjects in cohorts 4-6 were administered Compound 1 once daily in the morning (QAM) in a fed state. Subjects in cohorts 7-8 were administered Compound 1 once daily in the evening (QHS) in a fed state.
Part 3 Primary Objective: to evaluate the safety and tolerability of multiple oral doses of Compound 1 and to determine the maximum tolerated dose of Compound 1 following multiple oral doses. Part 3 Primary Endpoints: incidence, severity, and duration of treatment-emergent adverse events, […], and incidence of clinically significant vital signs, pulse oximetry, ECGs, safety laboratory, or physical examination findings, and the maximum tolerated dose of Compound 1 in healthy subjects.

CCCCCCCC(=O)OCC(COC(=O)CCCCCCC)OC(=O)CC(C)CC(=O)OCOC(=O)O[C@@H]1CC[C@@]2(C)[C@@H](CC[C@@H]3[C@@H]2CC[C@]2(C)[C@@H](C(C)=O)CC[C@@H]32)C1 (stereo partly drawn) [Compound 1]
tolerability across dose levels tested (Example 1, Parts 1-3): generally well tolerated
TEAE Abnormal Dreams (Psychiatric Disorders), subjects (%) (MAD Cohort 4, 250 mg QAM): 0
TEAE Balance Disorder (Nervous System Disorders), subjects (%) (MAD Cohort 4, 250 mg QAM): 0
TEAE Cognitive Disorder (Nervous System Disorders), subjects (%) (MAD Cohort 4, 250 mg QAM): 0
TEAE Diarrhoea (Gastrointestinal Disorders), subjects (%) (MAD Cohort 4, 250 mg QAM): 0
TEAE Disturbance in attention (Nervous System Disorders), subjects (%) (MAD Cohort 4, 250 mg QAM): 0
TEAE Dizziness (Nervous System Disorders), subjects (%) (MAD Cohort 4, 250 mg QAM): 0
TEAE Euphoric Mood (Psychiatric Disorders), subjects (%) (MAD Cohort 4, 250 mg QAM): 0
TEAE Fatigue (General Disorders and Administration Site Conditions), subjects (%) (MAD Cohort 4, 250 mg QAM): 0
TEAE Hallucination, Visual (Psychiatric Disorders), subjects (%) (MAD Cohort 4, 250 mg QAM): 0
TEAE Headache (Nervous System Disorders), subjects (%) (MAD Cohort 4, 250 mg QAM): 0
TEAE Lethargy (Nervous System Disorders), subjects (%) (MAD Cohort 4, 250 mg QAM): 0
TEAE Rhinorrhoea (Respiratory, Thoracic, and Mediastinal Disorders), subjects (%) (MAD Cohort 4, 250 mg QAM): 0
TEAE Sedation (Nervous System Disorders), subjects (%) (MAD Cohort 4, 250 mg QAM): 0
TEAE Somnolence (Nervous System Disorders), subjects (%) (MAD Cohort 4, 250 mg QAM): 7 (77.8%)
Any TEAE, subjects (%) (MAD Cohort 4, 250 mg QAM): 7 (77.8%)
TEAE Abnormal Dreams (Psychiatric Disorders), subjects (%) (MAD Cohort 5, 375 mg QAM): 1 (11.1%)
TEAE Balance Disorder (Nervous System Disorders), subjects (%) (MAD Cohort 5, 375 mg QAM): 0
TEAE Cognitive Disorder (Nervous System Disorders), subjects (%) (MAD Cohort 5, 375 mg QAM): 1 (11.1%)
TEAE Diarrhoea (Gastrointestinal Disorders), subjects (%) (MAD Cohort 5, 375 mg QAM): 0
TEAE Disturbance in attention (Nervous System Disorders), subjects (%) (MAD Cohort 5, 375 mg QAM): 0
TEAE Dizziness (Nervous System Disorders), subjects (%) (MAD Cohort 5, 375 mg QAM): 0
TEAE Euphoric Mood (Psychiatric Disorders), subjects (%) (MAD Cohort 5, 375 mg QAM): 0
TEAE Fatigue (General Disorders and Administration Site Conditions), subjects (%) (MAD Cohort 5, 375 mg QAM): 0
TEAE Hallucination, Visual (Psychiatric Disorders), subjects (%) (MAD Cohort 5, 375 mg QAM): 0
TEAE Headache (Nervous System Disorders), subjects (%) (MAD Cohort 5, 375 mg QAM): 0
TEAE Lethargy (Nervous System Disorders), subjects (%) (MAD Cohort 5, 375 mg QAM): 0
TEAE Rhinorrhoea (Respiratory, Thoracic, and Mediastinal Disorders), subjects (%) (MAD Cohort 5, 375 mg QAM): 0
TEAE Sedation (Nervous System Disorders), subjects (%) (MAD Cohort 5, 375 mg QAM): 0
TEAE Somnolence (Nervous System Disorders), subjects (%) (MAD Cohort 5, 375 mg QAM): 6 (66.7%)
Any TEAE, subjects (%) (MAD Cohort 5, 375 mg QAM): 6 (66.7%)
TEAE Abnormal Dreams (Psychiatric Disorders), subjects (%) (MAD Cohort 6, 500 mg QAM): 0
TEAE Balance Disorder (Nervous System Disorders), subjects (%) (MAD Cohort 6, 500 mg QAM): 7 (77.8%)
TEAE Cognitive Disorder (Nervous System Disorders), subjects (%) (MAD Cohort 6, 500 mg QAM): 4 (44.4%)
TEAE Diarrhoea (Gastrointestinal Disorders), subjects (%) (MAD Cohort 6, 500 mg QAM): 0
TEAE Disturbance in attention (Nervous System Disorders), subjects (%) (MAD Cohort 6, 500 mg QAM): 1 (11.1%)
TEAE Dizziness (Nervous System Disorders), subjects (%) (MAD Cohort 6, 500 mg QAM): 1 (11.1%)
TEAE Euphoric Mood (Psychiatric Disorders), subjects (%) (MAD Cohort 6, 500 mg QAM): 1 (11.1%)
TEAE Fatigue (General Disorders and Administration Site Conditions), subjects (%) (MAD Cohort 6, 500 mg QAM): 0
TEAE Hallucination, Visual (Psychiatric Disorders), subjects (%) (MAD Cohort 6, 500 mg QAM): 1 (11.1%)
TEAE Headache (Nervous System Disorders), subjects (%) (MAD Cohort 6, 500 mg QAM): 0
TEAE Lethargy (Nervous System Disorders), subjects (%) (MAD Cohort 6, 500 mg QAM): 1 (11.1%)
TEAE Rhinorrhoea (Respiratory, Thoracic, and Mediastinal Disorders), subjects (%) (MAD Cohort 6, 500 mg QAM): 0
TEAE Sedation (Nervous System Disorders), subjects (%) (MAD Cohort 6, 500 mg QAM): 0
TEAE Somnolence (Nervous System Disorders), subjects (%) (MAD Cohort 6, 500 mg QAM): 9 (100%)
Any TEAE, subjects (%) (MAD Cohort 6, 500 mg QAM): 9 (100%)
TEAE Abnormal Dreams (Psychiatric Disorders), subjects (%) (MAD Cohort 7, 375 mg QHS): 0
TEAE Balance Disorder (Nervous System Disorders), subjects (%) (MAD Cohort 7, 375 mg QHS): 2
TEAE Cognitive Disorder (Nervous System Disorders), subjects (%) (MAD Cohort 7, 375 mg QHS): 2 (22.2%)
TEAE Diarrhoea (Gastrointestinal Disorders), subjects (%) (MAD Cohort 7, 375 mg QHS): 1 (11.1%)
TEAE Disturbance in attention (Nervous System Disorders), subjects (%) (MAD Cohort 7, 375 mg QHS): 1 (11.1%)
TEAE Dizziness (Nervous System Disorders), subjects (%) (MAD Cohort 7, 375 mg QHS): 1 (11.1%)
TEAE Euphoric Mood (Psychiatric Disorders), subjects (%) (MAD Cohort 7, 375 mg QHS): 1 (11.1%)
TEAE Fatigue (General Disorders and Administration Site Conditions), subjects (%) (MAD Cohort 7, 375 mg QHS): 0
TEAE Hallucination, Visual (Psychiatric Disorders), subjects (%) (MAD Cohort 7, 375 mg QHS): 0
TEAE Headache (Nervous System Disorders), subjects (%) (MAD Cohort 7, 375 mg QHS): 1 (11.1%)
TEAE Lethargy (Nervous System Disorders), subjects (%) (MAD Cohort 7, 375 mg QHS): 0
TEAE Rhinorrhoea (Respiratory, Thoracic, and Mediastinal Disorders), subjects (%) (MAD Cohort 7, 375 mg QHS): 0
TEAE Sedation (Nervous System Disorders), subjects (%) (MAD Cohort 7, 375 mg QHS): 0
TEAE Somnolence (Nervous System Disorders), subjects (%) (MAD Cohort 7, 375 mg QHS): 5 (55.6%)
Any TEAE, subjects (%) (MAD Cohort 7, 375 mg QHS): 6 (66.7%)
TEAE Abnormal Dreams (Psychiatric Disorders), subjects (%) (MAD Cohort 8, 375 mg QHS): 0
TEAE Balance Disorder (Nervous System Disorders), subjects (%) (MAD Cohort 8, 375 mg QHS): 0
TEAE Cognitive Disorder (Nervous System Disorders), subjects (%) (MAD Cohort 8, 375 mg QHS): 0
TEAE Diarrhoea (Gastrointestinal Disorders), subjects (%) (MAD Cohort 8, 375 mg QHS): 0
TEAE Disturbance in attention (Nervous System Disorders), subjects (%) (MAD Cohort 8, 375 mg QHS): 0
TEAE Dizziness (Nervous System Disorders), subjects (%) (MAD Cohort 8, 375 mg QHS): 0
TEAE Euphoric Mood (Psychiatric Disorders), subjects (%) (MAD Cohort 8, 375 mg QHS): 0
TEAE Fatigue (General Disorders and Administration Site Conditions), subjects (%) (MAD Cohort 8, 375 mg QHS): 0
TEAE Hallucination, Visual (Psychiatric Disorders), subjects (%) (MAD Cohort 8, 375 mg QHS): 0
TEAE Headache (Nervous System Disorders), subjects (%) (MAD Cohort 8, 375 mg QHS): 0
TEAE Lethargy (Nervous System Disorders), subjects (%) (MAD Cohort 8, 375 mg QHS): 0
TEAE Rhinorrhoea (Respiratory, Thoracic, and Mediastinal Disorders), subjects (%) (MAD Cohort 8, 375 mg QHS): 0
TEAE Sedation (Nervous System Disorders), subjects (%) (MAD Cohort 8, 375 mg QHS): 1 (11.1%)
TEAE Somnolence (Nervous System Disorders), subjects (%) (MAD Cohort 8, 375 mg QHS): 1 (11.1%)
Any TEAE, subjects (%) (MAD Cohort 8, 375 mg QHS): 2 (22.2%)
effect of food on safety or tolerability (Part 2, 140 mg): Food did not impact safety or tolerability
most common adverse event (most frequently at doses greater than or equal to 500 mg): somnolence
